Measured values: a compilation of properties of binary mixtures (doi:10.1016/j.jct.2014.10.022)

Experiment: xn = mol fraction of the nth substance listed
Settings: 100 kPa

CCCC[n+]1ccc(C)cc1.O=S(=O)([N-]S(=O)(=O)C(F)(F)F)C(F)(F)F + CCOS(=O)(=O)[O-].CC[n+]1ccn(C)c1
viscosity [mPa·s]
Settings	x2 = 0.0475	x2 = 0.1177	x2 = 0.226	x2 = 0.3341	x2 = 0.4479	x2 = 0.558	x2 = 0.6663	x2 = 0.7776	x2 = 0.886	x2 = 0.9487
293.15 K	78.7	–	100.8	–	132.9	–	150.8	149.6	141.6	133.5
303.15 K	49.3	54	62.2	70.8	79.8	–	90.1	–	85.5	81.1
313.15 K	33	36	41.1	–	51.7	55.9	–	57.9	55.7	–
323.15 K	23.3	25.3	28.6	31.9	35.5	38.2	–	–	38.3	36.8
333.15 K	17.2	–	20.9	–	25.5	–	–	28.4	27.7	26.7
343.15 K	–	–	15.6	17.1	18.9	20.2	–	–	20.6	–
353.15 K	–	11	–	13.3	14.5	15.5	16.1	–	15.9	15.4

CC[n+]1ccn(C)c1.O=S(=O)([O-])C(F)(F)C(F)F + CCCC[n+]1ccc(C)cc1.O=S(=O)([N-]S(=O)(=O)C(F)(F)F)C(F)(F)F
viscosity [mPa·s]
Settings	x2 = 0.0504	x2 = 0.112	x2 = 0.2211	x2 = 0.3324	x2 = 0.4432	x2 = 0.5529	x2 = 0.6631	x2 = 0.774	x2 = 0.8828	x2 = 0.9517
293.15 K	115.9	113.9	–	–	–	95.1	89.1	–	78.9	75.3
303.15 K	72	70.8	69.5	–	62.7	59.4	55.8	52.9	49.7	–
313.15 K	–	–	45.7	43.8	–	39.5	–	35.4	33.2	31.7
323.15 K	33.3	32.8	31.7	30.6	–	27.6	26.5	25	23.4	22.4
333.15 K	24.3	24	23.2	22.4	–	–	–	18.4	17.3	16.6
343.15 K	–	18	17.3	16.8	16.2	15.2	14.7	13.9	13	12.5
353.15 K	14.2	14	13.5	13.1	12.6	11.9	11.6	–	–	9.9
